Measured values reported in the supplement of paper PMC10307832.

Legend:
Assay in all cases: relative viability (nuclei count vs DMSO), 5 days (fraction); higher = more cells survive
[1] = compound: CCC1=CN=CN=C1N2CCN(CC2)CC3=NC4=C(N3)C=C(C=C4)C(F)(F)F + Nc1nc2[nH]cc(CCc3ccc(C(=O)N[C@@H](CCC(=O)O)C(=O)O)cc3)c2c(=O)[nH]1 [Pemetrexed] (partner 0.2 µM)
Outline: (§1)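 Lung cancer cell lines, seeded in 1536-well plates, were treated the following day by pin tool with a single drug or with five library-drug doses (not always all listed) in √10 steps on top of a fixed anchor-drug dose. Cells were fixed and nuclei stained in one step after 5 days, and nuclei were counted. Relative viability is the nuclei count for treated wells divided by that for vehicle wells, reported as medians of duplicate plates.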

[2] = compound: CCn1c(-c2nonc2N)nc2cnc(Oc3cccc(NC(=O)c4ccc(OCCN5CCOCC5)cc4)c3)cc21 + COc1cc2c(Oc3ccc(NC(=O)C4(C(=O)Nc5ccc(F)cc5)CC4)cc3F)ccnc2cc1OCCCN1CCOCC1 [Foretinib] (partner 0.25 µM)
Outline: as §1

[3] = compound: CCn1c(-c2nonc2N)nc2cnc(Oc3cccc(NC(=O)c4ccc(OCCN5CCOCC5)cc4)c3)cc21 + CS(=O)(=O)N1CCN(Cc2cc3nc(-c4cccc5[nH]ncc45)nc(N4CCOCC4)c3s2)CC1 [Pictilisib] (partner 1 µM)
Outline: as §1

Mirin + Alpelisib = compound: N=C1NC(=O)/C(=C/c2ccc(O)cc2)S1 [Mirin] + Cc1nc(NC(=O)N2CCC[C@H]2C(N)=O)sc1-c1ccnc(C(C)(C)C(F)(F)F)c1 [Alpelisib] (partner 2 µM)
Outline: as §1

Cell Line	relative viability ([1]; first compound 0.04 µM)	relative viability ([1]; first compound 0.1265 µM)	relative viability ([1]; first compound 0.4 µM)	relative viability ([1]; first compound 1.265 µM)	relative viability ([1]; first compound 4 µM)	relative viability ([2]; first compound 0.04 µM)	relative viability ([2]; first compound 0.1265 µM)	relative viability ([2]; first compound 0.4 µM)	relative viability ([2]; first compound 1.265 µM)	relative viability ([2]; first compound 4 µM)	relative viability ([3]; first compound 0.04 µM)	relative viability ([3]; first compound 0.1265 µM)	relative viability ([3]; first compound 0.4 µM)	relative viability ([3]; first compound 1.265 µM)	relative viability ([3]; first compound 4 µM)	relative viability (Mirin + Alpelisib; first compound 0.25 µM)	relative viability (Mirin + Alpelisib; first compound 0.7906 µM)	relative viability (Mirin + Alpelisib; first compound 2.5 µM)	relative viability (Mirin + Alpelisib; first compound 7.906 µM)	relative viability (Mirin + Alpelisib; first compound 25 µM)
NCI-H1563	0.6	0.619	0.834	0.598	0.887	0.792	0.786	0.769	0.85	0.666	0.629	0.678	0.638	0.66	0.569	0.918	0.958	0.92	0.937	0.833
NCI-H1651	0.616	0.627	0.684	0.59	0.728	1	0.963	0.959	0.662	0.455	0.762	0.667	0.456	0.486	0.345	1.03	1.05	1.03	0.916	0.785
NCI-H1666	0.745	0.831	0.861	0.81	0.939	1.1	1.11	1.2	0.767	0.442	0.527	0.409	0.499	0.329	0.246	0.869	1.01	0.884	0.826	0.528
NCI-H1734	0.449	0.39	0.408	0.422	0.435	0.97	0.882	0.69	0.599	0.44	0.47	0.415	0.282	0.309	0.249	0.67	0.651	0.684	0.656	0.584
NCI-H1755	0.425	0.453	0.754	0.411	0.454	0.907	0.957	0.916	0.619	0.645	0.484	0.391	0.327	0.331	0.3	0.926	0.947	0.976	0.947	0.876
NCI-H1793	0.862	0.786	0.613	0.52	0.82	0.712	0.572	0.734	0.76	0.725	0.336	0.413	0.295	0.312	0.328	0.724	0.747	0.775	0.764	0.482
NCI-H1915	0.537	0.511	0.529	0.479	0.498	1.09	1.14	1.1	1.08	1.12	1.01	0.971	0.908	0.648	0.64	1.04		1.09	0.948	1.08
NCI-H1944	0.702	0.561	0.61	0.541	0.699	0.772	0.869	0.978	0.861	0.658	0.373	0.341		0.269	0.307	0.834		0.813	0.718	0.52
NCI-H1975	0.318	0.295	0.298	0.298	0.276	0.869	0.717	0.664	0.412	0.281	0.253	0.192	0.157	0.143	0.148	0.626	0.631	0.618	0.714	0.572
NCI-H1993	0.597	0.644	0.575	0.513	0.674	0.84	0.765	0.659	0.795	0.723	0.885	0.855		0.625	0.712	0.663	0.779	0.681	0.65	0.674
NCI-H2009	0.98	1.02	0.951	0.992	1.08	1.07	0.974	0.921	0.642	0.356	0.971	0.774	0.629	0.461	0.348	1.1	1.27	1.19	1.12	1.13
NCI-H2023	0.452	0.25	0.204	0.239	0.232	0.897	0.988	1.03	0.71	0.451	0.315	0.293	0.199	0.231	0.221	0.588	0.594	0.616	0.616	0.555
NCI-H2085	0.818	0.789	0.84	0.772	0.845	1.2	1.15	0.93	0.858	0.806	0.53	0.692	0.664	0.596	0.524	0.908	1.07	0.97	0.843	0.674
NCI-H2087	0.634	0.732	0.72	0.632	0.55	1.1	0.911	1.01	0.876	0.695		1.07	0.981	0.881	0.785	1.07	1.06	1.13	1.24	1.08
NCI-H2126	0.75	0.695	0.725	0.657	0.709	1.22	1.08			1.29	0.568	0.525	0.461	0.567	0.649	0.758	0.724	0.784	0.679	0.688
NCI-H2170	0.265	0.266	0.291	0.256	0.263	1	0.99	0.997	0.939	0.848	0.279	0.27	0.229	0.247	0.258	0.792	0.83	0.909	0.714	0.699
